From patent publication US6800473B1, “Human cathepsin L2 protein, gene encoding said protein and use thereof” (Daiichi Fine Chemical Co., Ltd., priority 1998, dated 2004)
Read-outs that look alike come from different tables or passages of the source. Where a SMILES comes first, the peptide text is derived from it. [ ]: non-standard residue; d: D form. The star is where a group is joined. Sta = CC(C)C[C@H](N)[C@@H](O)CC(=O)O; Isovaleryl = CC(C)CC(=O)*

Biological target: T1, recombinant cathepsin L2 (Homo sapiens, UniProt O60911)
T1 construct: extra Met before Leu114 (ATG of primer L2-1; own reading of the primer) (N); made in house; host or cells: E. coli BL21 (DE3)
Assay type: biochemical
Settings: FIG. 3(B)
Procedure: The enzyme activity of purified cathepsin L2 produced in E. coli was measured by using 20 μM Z-Phe-Arg-AMC or Z-Arg-Arg-AMC (Bachem) as the substrate and following the procedure described by Barrett and Kirschke (Barrett, A. J., et al., Methods Enzymol., 80: 535-561, 1981) with minor modifications. Assays were performed at 30° C. in 100 mM sodium acetate buffer (pH 4.5) containing 10 mM dithiothreitol (DTT) and 2 mM EDTA. Substrate hydrolysis was monitored in a Cytofluor 2350 fluorometer (Millipore) at excitation and emission wavelengths of 360 and 460 nm, respectively. For inhibition assays, the reaction mixture containing recombinant cathepsin L2 was preincubated with 20 μM E-64 (Sigma) at 30° C. for 15 min, and the remaining activity for recombinant cathepsin L2 was determined using the fluorogenic substrate Z-Phe-Arg-AMC as described herein previously. As a positive control of enzyme assays, recombinant cathepsin O produced in E. coli (Velasco, G., et al., J. Biol. Chem., 269: 27136-27142, 1994) was used.

[1] = inhibitors of metalloproteinases, serine-proteinases, aspartyl-proteinases, concentration not given

T1 sequence (O60911 114-334): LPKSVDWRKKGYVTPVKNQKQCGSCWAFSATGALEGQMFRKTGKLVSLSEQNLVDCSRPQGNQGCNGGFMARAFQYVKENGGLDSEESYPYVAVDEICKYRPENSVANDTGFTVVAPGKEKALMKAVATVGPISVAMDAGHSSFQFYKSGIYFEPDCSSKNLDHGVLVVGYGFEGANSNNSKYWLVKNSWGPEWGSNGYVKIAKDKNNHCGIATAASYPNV

CC(C)C[C@H](NC(=O)[C@H]1O[C@@H]1C(=O)O)C(=O)NCCCCN=C(N)N (relative stereo) [Clone E-64, trans-epoxysuccinyl-L-leucylamido-(4-guanidino)butane]
proteolytic activity of cathepsin L2 against Z-Phe-Arg-AMC in the presence of inhibitor (preincubated with 20 μM E-64 at 30° C. for 15 min, 100 mM sodium acetate buffer pH 4.5, 10 mM DTT, 2 mM EDTA): abolished

CC(C)CC(=O)N[C@H](C(=O)N[C@H](C(=O)N[C@@H](CC(C)C)[C@@H](O)CC(=O)N[C@@H](C)C(=O)N[C@@H](CC(C)C)[C@@H](O)CC(=O)O)C(C)C)C(C)C [pepstatin A] (Isovaleryl-VV[Sta]A[Sta]-OH)
proteolytic activity of cathepsin L2 against Z-Phe-Arg-AMC in the presence of inhibitor [1]: not abolished

O=S(=O)(F)Cc1ccccc1 [phenylmethylsulfonyl fluoride]
proteolytic activity of cathepsin L2 against Z-Phe-Arg-AMC in the presence of inhibitor [1]: not abolished
